This is an account of results in ChEMBL document CHEMBL1201862, “PubChem BioAssay data set” (2004).

By AC50 is commonly meant the midpoint of the concentration-response curve, whichever way the signal moves.

Assay [1] concerns the target ADP-ribosylation factor GTPase-activating protein 1 (Rattus norvegicus, UniProt Q62848). Kind of assay: Fluorescence polarization-based biochemical high throughput dose response screening assay to identify inhibitors of ADP-ribosylation factor GTPase activating protein 1 (ARFGAP1). It is filed as functional. Background: In fluorescence polarisation assays a small probe gives low polarisation when free and higher when bound to something large.

For assay [2], the target named is T1, Sentrin-specific protease 1 (Homo sapiens, UniProt Q9P0U3). Kind of assay: SENP1 catalytic domain blockers, concentration series – biochemical, kinetic FRET, dose response (AID 651697). It is filed as functional. The conditions noted are these: read-out: IC50_Mean.
T1 sequence (Q9P0U3 whole entry, the tested form may be a part): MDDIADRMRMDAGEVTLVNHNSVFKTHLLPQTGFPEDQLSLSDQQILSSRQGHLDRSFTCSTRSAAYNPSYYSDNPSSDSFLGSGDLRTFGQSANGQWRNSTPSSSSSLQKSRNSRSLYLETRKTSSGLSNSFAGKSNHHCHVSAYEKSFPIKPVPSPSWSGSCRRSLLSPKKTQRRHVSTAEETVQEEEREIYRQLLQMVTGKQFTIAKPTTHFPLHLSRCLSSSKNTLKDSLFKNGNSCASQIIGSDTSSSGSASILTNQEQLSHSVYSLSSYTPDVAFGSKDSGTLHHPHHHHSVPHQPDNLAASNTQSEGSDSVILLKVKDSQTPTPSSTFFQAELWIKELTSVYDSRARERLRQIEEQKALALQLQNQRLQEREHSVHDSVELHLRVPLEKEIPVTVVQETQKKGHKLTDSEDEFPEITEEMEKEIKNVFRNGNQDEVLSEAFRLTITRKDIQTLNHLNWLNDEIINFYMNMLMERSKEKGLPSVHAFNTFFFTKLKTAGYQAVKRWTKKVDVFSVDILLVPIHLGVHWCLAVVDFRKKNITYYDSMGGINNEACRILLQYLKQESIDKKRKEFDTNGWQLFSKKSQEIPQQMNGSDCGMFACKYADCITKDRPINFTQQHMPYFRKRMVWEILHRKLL
Assay [3] can be described thus: Luminescence Cell-Based Dose Retest to Confirm Inhibitors of Cancer Stem Cells. [Related pubchem assays (depositor defined):AID2717, AID2721]. It is filed as functional. The conditions noted are these: Homo sapiens.
Assay [4] addresses Transitional endoplasmic reticulum ATPase (Homo sapiens, UniProt P55072). Kind of assay: p97 ATPase inhibitors, dose response, biochemical (AID 1534).
Assay [5] concerns the target T1, Sentrin-specific protease 1. Kind of assay: Dose response confirmation of small molecule inhibitors of the catalytic domain of the SUMO protease, SENP1 in a FRET assay. It is filed as functional. The conditions noted are these: read-out: IC50_Mean.
For assay [6], the target named is Transitional endoplasmic reticulum ATPase (Homo sapiens, UniProt P55072, C522A). In words: C522A mutant p97 ATPase inhibitors, dose response, counter-screen for p97 inhibitor project, biochemical, luminescence (AID 1544). (In general: The purpose of a counterscreen is to sort out artefacts and off-target activity.)
Transitional endoplasmic reticulum ATPase (Homo sapiens, UniProt P55072, C522A), sequence (P55072 2-806 C522A limits assumed): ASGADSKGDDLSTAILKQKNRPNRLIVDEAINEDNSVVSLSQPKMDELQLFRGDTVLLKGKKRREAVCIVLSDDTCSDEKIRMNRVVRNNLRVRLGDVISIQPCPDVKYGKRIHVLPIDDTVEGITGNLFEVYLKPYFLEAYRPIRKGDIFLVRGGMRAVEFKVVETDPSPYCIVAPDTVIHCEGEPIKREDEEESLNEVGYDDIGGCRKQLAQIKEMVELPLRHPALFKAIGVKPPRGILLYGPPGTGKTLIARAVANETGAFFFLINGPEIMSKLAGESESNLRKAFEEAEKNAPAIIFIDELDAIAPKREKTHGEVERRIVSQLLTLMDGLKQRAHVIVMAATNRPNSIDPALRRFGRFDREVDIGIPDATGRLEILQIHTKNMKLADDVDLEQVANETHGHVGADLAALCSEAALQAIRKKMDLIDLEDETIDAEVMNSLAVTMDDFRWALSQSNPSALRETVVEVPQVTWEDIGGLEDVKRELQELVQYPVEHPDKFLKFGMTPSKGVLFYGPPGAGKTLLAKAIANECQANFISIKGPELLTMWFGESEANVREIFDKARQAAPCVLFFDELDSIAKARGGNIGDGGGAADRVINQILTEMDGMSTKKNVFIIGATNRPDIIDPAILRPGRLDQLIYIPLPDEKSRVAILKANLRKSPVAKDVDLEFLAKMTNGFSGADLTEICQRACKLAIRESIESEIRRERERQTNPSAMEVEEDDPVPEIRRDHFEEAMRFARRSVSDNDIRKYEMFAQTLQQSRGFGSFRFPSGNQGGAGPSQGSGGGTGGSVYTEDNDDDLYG
In assay [7] the target is T2, Beta-2 adrenergic receptor (Homo sapiens, UniProt P07550). In words: Dose response for HTS for Beta-2AR agonists via FAP method from Powderset1. Type of assay: functional.
T2 sequence (P07550 whole entry): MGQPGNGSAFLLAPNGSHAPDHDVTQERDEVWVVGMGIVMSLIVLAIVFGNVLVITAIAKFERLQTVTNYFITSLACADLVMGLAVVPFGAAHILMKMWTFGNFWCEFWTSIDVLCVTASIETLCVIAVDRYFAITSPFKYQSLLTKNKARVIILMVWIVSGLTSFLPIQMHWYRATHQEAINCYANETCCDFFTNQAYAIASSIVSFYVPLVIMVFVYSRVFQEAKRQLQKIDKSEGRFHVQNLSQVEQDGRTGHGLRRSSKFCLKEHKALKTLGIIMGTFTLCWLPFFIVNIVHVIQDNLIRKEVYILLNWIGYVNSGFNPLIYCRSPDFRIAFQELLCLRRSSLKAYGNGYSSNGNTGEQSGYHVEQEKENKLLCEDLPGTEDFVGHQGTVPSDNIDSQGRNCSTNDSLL
The nature of assay [8]: Cytotoxicity Dose Response with AM2.2-beta2AR cells for PowderSet01. It is filed as functional, cell-based. The conditions noted are these: read-out: EC50_MICROM.
For assay [9], the target named is T2, Beta-2 adrenergic receptor. Kind of assay: ADRB2 activation measured by internalization – cell-based, FAP fluorogen, flow cytometry, cherry pick 1, dose response (AID 588763). It is filed as functional.
Assay [10] addresses Cytochrome P450 2C9 (Homo sapiens, UniProt P11712).
For assay [11], the system named is Streptococcus sp. 'group A'. In words: Streptococcus pyogenes SK(-)GAS viability under kanamycin – luminescence, BacTiterGlo, confirmation, counter-screen for streptokinase expression inhibitor project, dose response (AID 1900). It is filed as functional, organism-based.
The target in assay [12] is Cytochrome P450 2C19 (Homo sapiens, UniProt P33261). Kind of assay: Cytochrome panel assay with activity outcomes. Panel member name: p450-cyp2c19 Compounds with AC50 equal or less than 10 uM are considered active. Type of assay: functional. The conditions noted are these: read-out: AC50.
Cytochrome P450 2C19, sequence (P33261 whole entry): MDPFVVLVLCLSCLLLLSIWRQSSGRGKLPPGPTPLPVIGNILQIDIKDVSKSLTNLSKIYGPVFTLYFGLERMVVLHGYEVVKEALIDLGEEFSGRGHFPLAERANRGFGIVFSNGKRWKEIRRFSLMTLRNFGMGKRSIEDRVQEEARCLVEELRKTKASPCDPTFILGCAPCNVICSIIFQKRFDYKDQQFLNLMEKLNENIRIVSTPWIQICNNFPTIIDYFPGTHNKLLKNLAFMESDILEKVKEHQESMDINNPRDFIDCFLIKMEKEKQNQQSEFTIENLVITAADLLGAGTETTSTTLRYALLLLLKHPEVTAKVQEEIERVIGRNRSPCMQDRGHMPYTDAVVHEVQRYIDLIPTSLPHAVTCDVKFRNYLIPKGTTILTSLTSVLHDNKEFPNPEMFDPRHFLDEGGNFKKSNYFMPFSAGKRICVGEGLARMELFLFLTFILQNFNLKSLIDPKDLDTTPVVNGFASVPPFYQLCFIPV
The target of assay [13] is Potassium voltage-gated channel subfamily KQT member 2 (Rattus norvegicus, UniProt O88943). Kind of assay: blockers of KCNQ2 channel current – cell-based, automated electrophysiology, set II, rat KCNQ2, dose response (AID 588637). Type of assay: functional.
Potassium voltage-gated channel subfamily KQT member 2, sequence (O88943 whole entry): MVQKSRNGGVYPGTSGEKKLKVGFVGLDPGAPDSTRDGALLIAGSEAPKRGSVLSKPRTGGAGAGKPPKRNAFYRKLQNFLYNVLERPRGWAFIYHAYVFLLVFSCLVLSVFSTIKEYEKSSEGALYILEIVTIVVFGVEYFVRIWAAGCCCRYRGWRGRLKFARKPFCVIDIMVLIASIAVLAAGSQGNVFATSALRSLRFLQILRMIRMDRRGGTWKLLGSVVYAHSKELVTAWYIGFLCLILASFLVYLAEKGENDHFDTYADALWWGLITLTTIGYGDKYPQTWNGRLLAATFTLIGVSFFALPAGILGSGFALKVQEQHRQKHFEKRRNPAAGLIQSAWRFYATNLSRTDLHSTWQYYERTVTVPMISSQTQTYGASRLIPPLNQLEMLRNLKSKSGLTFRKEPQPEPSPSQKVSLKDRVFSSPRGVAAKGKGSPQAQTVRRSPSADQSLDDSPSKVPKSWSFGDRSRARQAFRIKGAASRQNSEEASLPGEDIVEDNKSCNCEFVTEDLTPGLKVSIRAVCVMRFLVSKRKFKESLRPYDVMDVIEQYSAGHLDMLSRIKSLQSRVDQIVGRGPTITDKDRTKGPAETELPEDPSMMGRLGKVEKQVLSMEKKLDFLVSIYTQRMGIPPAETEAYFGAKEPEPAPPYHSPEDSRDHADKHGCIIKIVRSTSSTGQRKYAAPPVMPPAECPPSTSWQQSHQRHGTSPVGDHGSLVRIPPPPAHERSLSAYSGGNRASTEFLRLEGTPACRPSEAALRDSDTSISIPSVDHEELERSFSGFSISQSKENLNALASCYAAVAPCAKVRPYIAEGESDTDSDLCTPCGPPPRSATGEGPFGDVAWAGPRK
In assay [14] the target is T3, Cytochrome P450 1A2 (Homo sapiens, UniProt P05177).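 Also: PubChem cytochrome P450 panel assay, CYP1A2 panel member.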
T3 sequence (P05177 whole entry): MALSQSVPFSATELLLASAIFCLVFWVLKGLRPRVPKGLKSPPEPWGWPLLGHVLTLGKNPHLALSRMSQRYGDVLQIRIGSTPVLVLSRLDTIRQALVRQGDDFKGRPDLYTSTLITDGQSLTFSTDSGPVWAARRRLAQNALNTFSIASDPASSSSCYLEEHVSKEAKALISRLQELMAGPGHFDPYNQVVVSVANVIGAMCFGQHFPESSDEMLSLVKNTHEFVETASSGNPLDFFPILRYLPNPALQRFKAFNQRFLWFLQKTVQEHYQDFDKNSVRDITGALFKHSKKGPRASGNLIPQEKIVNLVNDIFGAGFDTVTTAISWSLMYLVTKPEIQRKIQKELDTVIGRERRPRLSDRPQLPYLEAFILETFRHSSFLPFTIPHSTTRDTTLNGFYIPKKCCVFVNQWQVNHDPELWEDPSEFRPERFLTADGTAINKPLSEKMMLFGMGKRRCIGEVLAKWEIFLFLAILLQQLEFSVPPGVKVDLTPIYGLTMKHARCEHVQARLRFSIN

The target of assay [15] is T4, Streptokinase A (Streptococcus pyogenes serotype M1, UniProt P10520).
T4 sequence (P10520 whole entry): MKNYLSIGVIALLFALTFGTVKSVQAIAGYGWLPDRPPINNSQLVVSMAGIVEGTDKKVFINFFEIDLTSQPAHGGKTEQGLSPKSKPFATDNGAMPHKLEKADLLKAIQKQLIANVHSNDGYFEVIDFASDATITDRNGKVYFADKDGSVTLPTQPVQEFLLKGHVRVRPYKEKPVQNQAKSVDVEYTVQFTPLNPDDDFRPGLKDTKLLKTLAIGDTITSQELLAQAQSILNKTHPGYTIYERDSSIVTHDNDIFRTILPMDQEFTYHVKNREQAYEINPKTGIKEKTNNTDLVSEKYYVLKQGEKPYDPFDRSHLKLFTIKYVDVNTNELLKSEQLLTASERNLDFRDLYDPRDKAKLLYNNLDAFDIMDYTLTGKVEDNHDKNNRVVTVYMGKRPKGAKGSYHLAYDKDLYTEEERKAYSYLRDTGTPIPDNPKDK
Kind of assay: viability-normalized secreted streptokinase activity reduction – plasminogen activation absorbance, OD405, dose response (AID 1914).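 Also: secreted streptokinase activity via plasminogen activation per viability signal from cell pellet.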 It is filed as functional, Streptococcus pyogenes M1 GAS.

For assay [16], the system named is Streptococcus. Kind of assay: GAS UMAA2166 growth inhibition – luminescence, BacTiterGlo, counter-screen for streptokinase expression inhibitor project, dose response (AID 1915).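 Also: potency for reduction of bacterial viability or growth.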 Type of assay: functional, organism-based.
In assay [17] the test system is INS1. Kind of assay: INS-1E survival protection against cytokine death – cell-based, luminescence, retest, dose response (AID 449756).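 Also: cell death triggered by IL-1 beta plus TNF-alpha plus IFN-gamma mixture; protective hits raise ATP signal compared with cytokine alone wells.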 Type of assay: functional. The conditions noted are these: Rattus norvegicus.
The target in assay [18] is Cytochrome P450 2D6 (Homo sapiens, UniProt P10635).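 Also: CYP2D6 member of a cytochrome P450 panel assay.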
Cytochrome P450 2D6, sequence (P10635 whole entry): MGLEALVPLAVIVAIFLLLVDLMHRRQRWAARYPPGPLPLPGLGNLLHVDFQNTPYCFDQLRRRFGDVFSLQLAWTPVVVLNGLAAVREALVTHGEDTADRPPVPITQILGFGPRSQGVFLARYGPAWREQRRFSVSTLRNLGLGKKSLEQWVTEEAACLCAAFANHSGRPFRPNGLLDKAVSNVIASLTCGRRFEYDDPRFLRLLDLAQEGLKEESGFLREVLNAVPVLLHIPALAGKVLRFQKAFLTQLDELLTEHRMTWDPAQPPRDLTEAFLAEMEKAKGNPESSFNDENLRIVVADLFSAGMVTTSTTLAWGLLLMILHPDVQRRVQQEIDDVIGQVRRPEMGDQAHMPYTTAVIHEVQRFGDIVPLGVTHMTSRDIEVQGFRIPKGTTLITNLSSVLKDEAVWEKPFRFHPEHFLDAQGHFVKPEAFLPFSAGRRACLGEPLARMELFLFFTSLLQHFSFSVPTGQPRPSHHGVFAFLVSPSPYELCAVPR
Assay [19] concerns the target Protein Wnt-3a (Mus musculus, UniProt P27467). In words: antagonism of Wnt3a pathway luciferase reporter – Wnt-LIGHT cells, luminescence, selectivity assay for Gli-SUFU antagonist project, dose response (AID 651570).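 Also: Wnt-LIGHT reporter cells stimulated with conditioned medium from Wnt3a-producing cells.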 It is filed as functional. The conditions noted are these: read-out: IC50_Mean. For orientation: Reporter assays use an easily measured gene product as a stand-in for the process of interest.

The source made the active and inactive calls. A value given as a limit tells only on which side of the number the result lay.

Protein Wnt-3a, sequence (P27467 whole entry): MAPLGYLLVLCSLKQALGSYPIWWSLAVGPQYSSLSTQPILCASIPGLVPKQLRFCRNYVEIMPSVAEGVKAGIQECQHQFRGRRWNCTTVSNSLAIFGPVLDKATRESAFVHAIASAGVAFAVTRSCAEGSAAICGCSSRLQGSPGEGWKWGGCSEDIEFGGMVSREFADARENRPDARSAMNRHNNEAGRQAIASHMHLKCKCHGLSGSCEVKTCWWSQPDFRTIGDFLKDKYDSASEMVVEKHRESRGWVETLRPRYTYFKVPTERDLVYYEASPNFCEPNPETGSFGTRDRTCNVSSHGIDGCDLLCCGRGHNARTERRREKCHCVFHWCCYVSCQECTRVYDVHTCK
Transitional endoplasmic reticulum ATPase (Homo sapiens, UniProt P55072), sequence (P55072 whole entry, the tested form may be a part): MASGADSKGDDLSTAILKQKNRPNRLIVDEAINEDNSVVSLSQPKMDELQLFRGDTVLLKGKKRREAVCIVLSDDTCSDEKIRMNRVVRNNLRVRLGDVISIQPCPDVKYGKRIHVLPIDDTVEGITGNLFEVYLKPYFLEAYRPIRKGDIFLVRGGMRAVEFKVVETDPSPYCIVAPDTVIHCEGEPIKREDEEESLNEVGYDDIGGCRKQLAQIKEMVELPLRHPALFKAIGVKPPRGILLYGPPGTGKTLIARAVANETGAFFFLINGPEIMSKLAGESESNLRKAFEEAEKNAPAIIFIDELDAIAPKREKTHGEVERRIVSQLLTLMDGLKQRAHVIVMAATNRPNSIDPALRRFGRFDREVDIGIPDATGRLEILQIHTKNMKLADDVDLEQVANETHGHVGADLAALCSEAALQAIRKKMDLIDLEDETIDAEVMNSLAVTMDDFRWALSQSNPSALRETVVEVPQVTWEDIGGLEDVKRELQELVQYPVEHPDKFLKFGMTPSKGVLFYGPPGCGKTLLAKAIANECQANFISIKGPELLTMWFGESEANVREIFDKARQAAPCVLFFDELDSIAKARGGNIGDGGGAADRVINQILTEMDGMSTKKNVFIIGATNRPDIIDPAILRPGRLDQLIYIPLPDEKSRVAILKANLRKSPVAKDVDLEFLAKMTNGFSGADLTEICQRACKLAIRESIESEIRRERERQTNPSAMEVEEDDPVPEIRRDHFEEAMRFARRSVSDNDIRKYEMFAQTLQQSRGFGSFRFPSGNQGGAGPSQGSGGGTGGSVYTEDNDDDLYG

For `CCOC(=O)N1CCN(C(=O)CSc2nc(=O)n3cc(C)ccc3n2)CC1`, in assay [1], the IC50 is 53.2 µM (inactive).
Take `Oc1ccc(Cl)cc1/C=C(\Cl)c1nc(O)c2ccc(Cl)cc2n1`: the IC50 in assay [2] is 0.654 µM (active); in [4], > 50 µM (not active); in assay [5] it was 0.428 µM (active); in assay [6], > 50 µM (not active). In addition, the half-maximal activity concentration (AC50) in assay [3] was 1.32 µM (active).
With `CCCCC(=O)Nc1ccc(S(=O)(=O)N2CCCCC2c2cccnc2)cc1` (centres undefined), the EC50 is 0.0322 µM (active) in assay [7], 23.3 µM (active) in assay [8] and 0.0798 µM (active) in [9].
With `O=C(CSc1nc2ccccc2c(=O)n1NC(=O)c1ccccc1)c1ccc(Cl)cc1`, the concentration at half-maximal activity (AC50) in [10] is 1 µM (inconclusive); in assay [12], 2.24 µM (inconclusive); in assay [14], 6.31 µM (inconclusive). In addition, the EC50 is 7.26 µM (active) in [11], 106 µM (active) in assay [15] and > 150 µM (not active) in assay [16]. The IC50 in assay [13] is 1.53 µM (active).
Consider `Cc1cc(/C=N/n2cnnc2)c(C)n1-c1ccc(OCc2ccccc2F)cc1`, for which the figures for the AC50 in assay [17] and in assay [18] were 3.41 µM (active) and 17.8 µM (inconclusive), respectively. In assay [19], the IC50 was 6.57 µM (active).
